Inhibition and K data for three compounds are collected here from ChEMBL document CHEMBL3627608, “Crystal structures of human RIP2 kinase catalytic domain complexed with ATP-competitive inhibitors: Foundations for understanding inhibitor selectivity” (Bioorg Med Chem, 2015).

For assay [1], the target named is Receptor tyrosine-protein kinase erbB-2 (Homo sapiens) (UniProt P04626). Description: Inhibition of ERBB2 (unknown origin) at 10 uM after 120 mins P33 radiolabeled kinase activity assay.
Assay [2] has as its target Fibroblast growth factor receptor 2 (Homo sapiens) (UniProt P21802). Description: Inhibition of FGFR2 (unknown origin) at 10 uM after 120 mins P33 radiolabeled kinase activity assay.
In assay [3] the target is Fibroblast growth factor receptor 3 (Homo sapiens) (UniProt P22607). The assay can be described thus: Inhibition of FGFR3 (unknown origin) at 10 uM after 120 mins P33 radiolabeled kinase activity assay.
Assay [4] addresses T1, Serine/threonine-protein kinase haspin (Homo sapiens) (UniProt Q8TF76).
T1 sequence (whole entry): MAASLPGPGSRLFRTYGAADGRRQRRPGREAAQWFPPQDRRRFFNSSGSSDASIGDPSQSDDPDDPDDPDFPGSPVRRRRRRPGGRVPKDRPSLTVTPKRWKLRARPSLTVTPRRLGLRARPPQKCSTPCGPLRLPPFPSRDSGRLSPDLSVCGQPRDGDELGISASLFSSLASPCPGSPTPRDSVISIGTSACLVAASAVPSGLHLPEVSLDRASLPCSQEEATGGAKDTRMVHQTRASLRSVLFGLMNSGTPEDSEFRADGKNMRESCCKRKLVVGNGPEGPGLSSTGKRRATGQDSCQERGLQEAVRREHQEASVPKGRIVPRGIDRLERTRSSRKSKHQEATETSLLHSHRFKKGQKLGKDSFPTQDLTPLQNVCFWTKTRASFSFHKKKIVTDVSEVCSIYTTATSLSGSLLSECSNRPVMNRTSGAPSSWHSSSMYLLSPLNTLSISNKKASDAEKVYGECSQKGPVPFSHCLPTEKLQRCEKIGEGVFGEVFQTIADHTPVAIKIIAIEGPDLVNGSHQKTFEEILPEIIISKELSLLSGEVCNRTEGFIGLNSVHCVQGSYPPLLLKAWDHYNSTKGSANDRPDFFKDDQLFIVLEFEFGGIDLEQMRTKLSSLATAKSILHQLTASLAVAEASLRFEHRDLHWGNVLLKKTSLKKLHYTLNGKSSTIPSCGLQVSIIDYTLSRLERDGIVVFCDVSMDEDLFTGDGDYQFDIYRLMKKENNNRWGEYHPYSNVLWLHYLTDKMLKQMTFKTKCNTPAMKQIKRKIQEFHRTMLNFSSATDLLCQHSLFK
Description: Inhibition of Haspin (unknown origin) at 10 uM after 120 mins P33 radiolabeled kinase activity assay.

Assay [5] addresses Homeodomain-interacting protein kinase 3 (Homo sapiens) (UniProt Q9H422). Description: Inhibition of HIPK3 (unknown origin) at 10 uM after 120 mins P33 radiolabeled kinase activity assay.
Assay [6] deals with cAMP-dependent protein kinase catalytic subunit beta (Homo sapiens) (UniProt P22694). Description: Inhibition of PKAcbeta (unknown origin) at 10 uM after 120 mins P33 radiolabeled kinase activity assay.
Assay [7] addresses Protein-tyrosine kinase 2-beta (Homo sapiens) (UniProt Q14289). The assay can be described thus: Inhibition of PYK2 (unknown origin) at 10 uM after 120 mins P33 radiolabeled kinase activity assay.
The target in assay [8] is Leucine-rich repeat serine/threonine-protein kinase 2 (Homo sapiens) (UniProt Q5S007). Description: Inhibition of LRRK2 (unknown origin) at 10 uM after 120 mins P33 radiolabeled kinase activity assay.
Assay [9] has as its target MAP kinase-activated protein kinase 3 (Homo sapiens) (UniProt Q16644). The assay can be described thus: Inhibition of MAPKAPK3 (unknown origin) at 10 uM after 120 mins P33 radiolabeled kinase activity assay.
Assay [10] concerns the target T2, NUAK family SNF1-like kinase 2 (Homo sapiens) (UniProt Q9H093).
T2 sequence (whole entry): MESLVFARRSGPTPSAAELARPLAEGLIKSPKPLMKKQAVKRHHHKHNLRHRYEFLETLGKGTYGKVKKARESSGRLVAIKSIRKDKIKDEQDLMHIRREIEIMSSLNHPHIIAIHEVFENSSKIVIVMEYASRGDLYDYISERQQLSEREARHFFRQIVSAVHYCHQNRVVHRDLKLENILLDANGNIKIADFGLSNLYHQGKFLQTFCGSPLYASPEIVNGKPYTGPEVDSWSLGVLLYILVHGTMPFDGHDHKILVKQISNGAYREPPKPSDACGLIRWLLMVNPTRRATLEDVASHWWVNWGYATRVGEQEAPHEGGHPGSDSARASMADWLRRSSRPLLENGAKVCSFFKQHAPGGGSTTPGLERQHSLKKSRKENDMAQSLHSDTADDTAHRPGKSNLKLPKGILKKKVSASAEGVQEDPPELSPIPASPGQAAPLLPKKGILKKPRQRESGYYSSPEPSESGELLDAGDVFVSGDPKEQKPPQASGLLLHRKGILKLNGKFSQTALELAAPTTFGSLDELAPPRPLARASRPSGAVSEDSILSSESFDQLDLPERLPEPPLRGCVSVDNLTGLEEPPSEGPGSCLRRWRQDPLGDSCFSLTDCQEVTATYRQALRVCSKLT
The assay can be described thus: Inhibition of SNARK (unknown origin) at 10 uM after 120 mins P33 radiolabeled kinase activity assay.

Assay [11] deals with Dual specificity testis-specific protein kinase 1 (Homo sapiens) (UniProt Q15569). The assay can be described thus: Inhibition of TESK1 (unknown origin) at 10 uM after 120 mins P33 radiolabeled kinase activity assay.
Assay [12] addresses Angiopoietin-1 receptor (Homo sapiens) (UniProt Q02763). Description: Inhibition of TIE2 (unknown origin) at 10 uM after 120 mins P33 radiolabeled kinase activity assay.
Assay [13] addresses Receptor-interacting serine/threonine-protein kinase 2 (Homo sapiens, UniProt O43353). Description: Inhibition of full-length FLAG-6His-TEV tagged human RIP2 expressed in Sf9 cells assessed as dissociation rate by fluorescent polarization assay.
The target of assay [14] is Protein-tyrosine kinase 6 (Homo sapiens) (UniProt Q13882). Description: Inhibition of BRK (unknown origin) at 10 uM after 120 mins P33 radiolabeled kinase activity assay.
In assay [15] the target is CDK6/cyclin D3 (Homo sapiens) (UniProt P30281+Q00534). The assay can be described thus: Inhibition of CDK6/cyclin D3 (unknown origin) at 10 uM after 120 mins P33 radiolabeled kinase activity assay. The format is protein-complex assay.

Protein-tyrosine kinase 2-beta (Homo sapiens), sequence (Q14289 whole entry, looked up): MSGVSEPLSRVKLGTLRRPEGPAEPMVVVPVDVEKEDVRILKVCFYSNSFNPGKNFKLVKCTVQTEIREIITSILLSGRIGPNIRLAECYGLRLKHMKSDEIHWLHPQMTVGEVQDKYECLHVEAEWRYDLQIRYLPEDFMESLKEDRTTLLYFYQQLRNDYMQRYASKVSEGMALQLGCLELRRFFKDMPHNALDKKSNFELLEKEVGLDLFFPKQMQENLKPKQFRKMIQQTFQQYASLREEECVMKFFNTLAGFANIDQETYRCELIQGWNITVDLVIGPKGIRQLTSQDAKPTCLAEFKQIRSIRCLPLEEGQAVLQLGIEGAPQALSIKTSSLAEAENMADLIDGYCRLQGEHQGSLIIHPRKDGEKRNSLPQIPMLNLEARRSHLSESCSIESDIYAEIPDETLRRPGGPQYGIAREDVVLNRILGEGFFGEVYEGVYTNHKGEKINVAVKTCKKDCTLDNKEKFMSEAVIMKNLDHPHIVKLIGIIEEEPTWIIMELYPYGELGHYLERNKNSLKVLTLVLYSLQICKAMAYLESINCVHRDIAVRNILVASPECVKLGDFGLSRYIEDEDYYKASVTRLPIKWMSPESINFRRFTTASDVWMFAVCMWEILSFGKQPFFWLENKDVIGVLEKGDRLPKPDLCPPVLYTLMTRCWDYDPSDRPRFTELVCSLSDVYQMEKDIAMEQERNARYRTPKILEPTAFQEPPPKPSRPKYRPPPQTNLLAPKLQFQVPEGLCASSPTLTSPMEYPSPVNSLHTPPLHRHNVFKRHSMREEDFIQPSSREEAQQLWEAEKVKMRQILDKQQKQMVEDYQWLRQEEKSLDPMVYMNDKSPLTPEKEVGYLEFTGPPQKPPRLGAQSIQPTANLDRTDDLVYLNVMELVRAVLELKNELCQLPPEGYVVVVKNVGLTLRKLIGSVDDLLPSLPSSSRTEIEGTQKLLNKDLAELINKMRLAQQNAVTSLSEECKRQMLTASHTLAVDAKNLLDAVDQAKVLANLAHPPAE
Receptor tyrosine-protein kinase erbB-2 (Homo sapiens), sequence (P04626 whole entry): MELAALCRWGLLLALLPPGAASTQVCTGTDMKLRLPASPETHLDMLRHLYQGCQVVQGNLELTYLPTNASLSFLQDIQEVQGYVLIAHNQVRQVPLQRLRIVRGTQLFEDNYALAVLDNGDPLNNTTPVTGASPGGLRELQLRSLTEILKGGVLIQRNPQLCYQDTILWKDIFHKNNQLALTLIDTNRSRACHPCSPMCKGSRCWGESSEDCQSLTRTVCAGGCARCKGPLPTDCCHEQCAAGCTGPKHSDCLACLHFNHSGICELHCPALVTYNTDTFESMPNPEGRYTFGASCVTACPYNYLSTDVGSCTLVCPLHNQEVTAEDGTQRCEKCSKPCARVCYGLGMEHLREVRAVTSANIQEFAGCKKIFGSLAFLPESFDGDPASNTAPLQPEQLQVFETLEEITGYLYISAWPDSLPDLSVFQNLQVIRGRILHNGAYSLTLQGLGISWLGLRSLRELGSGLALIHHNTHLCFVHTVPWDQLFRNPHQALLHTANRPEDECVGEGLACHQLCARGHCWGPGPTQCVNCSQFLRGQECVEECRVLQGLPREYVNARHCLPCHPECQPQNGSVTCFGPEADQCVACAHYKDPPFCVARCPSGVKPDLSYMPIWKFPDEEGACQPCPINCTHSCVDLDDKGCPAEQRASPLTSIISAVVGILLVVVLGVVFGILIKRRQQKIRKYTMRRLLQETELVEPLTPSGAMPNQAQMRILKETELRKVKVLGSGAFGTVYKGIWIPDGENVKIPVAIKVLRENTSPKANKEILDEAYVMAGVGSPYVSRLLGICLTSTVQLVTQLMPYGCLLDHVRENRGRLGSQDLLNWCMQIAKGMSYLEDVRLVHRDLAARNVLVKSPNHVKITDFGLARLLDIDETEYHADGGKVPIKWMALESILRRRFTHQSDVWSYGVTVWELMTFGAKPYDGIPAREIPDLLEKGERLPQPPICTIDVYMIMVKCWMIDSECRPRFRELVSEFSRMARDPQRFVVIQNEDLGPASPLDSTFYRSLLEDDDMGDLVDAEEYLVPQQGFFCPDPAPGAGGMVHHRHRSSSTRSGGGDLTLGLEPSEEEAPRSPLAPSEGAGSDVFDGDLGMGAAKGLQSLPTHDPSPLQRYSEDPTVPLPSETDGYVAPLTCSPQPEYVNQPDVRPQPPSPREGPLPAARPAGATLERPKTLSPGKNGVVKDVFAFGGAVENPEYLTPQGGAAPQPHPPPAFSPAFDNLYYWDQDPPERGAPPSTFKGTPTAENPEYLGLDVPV
Dual specificity testis-specific protein kinase 1 (Homo sapiens), sequence (Q15569 whole entry, looked up): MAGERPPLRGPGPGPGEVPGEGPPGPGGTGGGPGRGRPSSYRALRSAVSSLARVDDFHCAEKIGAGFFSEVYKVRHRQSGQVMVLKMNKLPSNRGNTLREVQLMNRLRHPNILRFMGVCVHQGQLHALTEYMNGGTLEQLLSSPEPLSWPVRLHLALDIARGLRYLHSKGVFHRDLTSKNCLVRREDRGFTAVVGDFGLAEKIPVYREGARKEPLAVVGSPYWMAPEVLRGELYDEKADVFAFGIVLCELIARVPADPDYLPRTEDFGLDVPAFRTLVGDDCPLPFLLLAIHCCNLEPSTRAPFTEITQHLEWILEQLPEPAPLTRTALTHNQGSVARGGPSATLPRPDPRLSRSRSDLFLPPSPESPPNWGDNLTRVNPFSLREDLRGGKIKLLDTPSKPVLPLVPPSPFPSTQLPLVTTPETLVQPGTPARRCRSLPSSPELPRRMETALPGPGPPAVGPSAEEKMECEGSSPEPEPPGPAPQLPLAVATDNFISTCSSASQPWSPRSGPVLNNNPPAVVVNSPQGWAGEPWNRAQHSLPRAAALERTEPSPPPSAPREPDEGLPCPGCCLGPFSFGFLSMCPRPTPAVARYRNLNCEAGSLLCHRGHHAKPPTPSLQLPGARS
Protein-tyrosine kinase 6 (Homo sapiens), sequence (Q13882 whole entry, looked up): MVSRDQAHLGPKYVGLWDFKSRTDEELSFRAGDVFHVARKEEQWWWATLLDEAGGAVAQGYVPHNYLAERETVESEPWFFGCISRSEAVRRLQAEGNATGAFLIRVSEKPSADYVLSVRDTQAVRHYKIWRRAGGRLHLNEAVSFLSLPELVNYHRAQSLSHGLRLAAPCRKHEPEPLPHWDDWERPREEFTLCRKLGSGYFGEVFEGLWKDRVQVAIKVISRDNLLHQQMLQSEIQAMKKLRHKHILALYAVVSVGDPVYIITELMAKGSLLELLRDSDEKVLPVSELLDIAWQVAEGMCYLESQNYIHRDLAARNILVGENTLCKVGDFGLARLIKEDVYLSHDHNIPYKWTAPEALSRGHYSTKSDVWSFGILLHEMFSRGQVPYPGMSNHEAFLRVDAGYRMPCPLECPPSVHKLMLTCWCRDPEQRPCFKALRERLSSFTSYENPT
Homeodomain-interacting protein kinase 3 (Homo sapiens), sequence (Q9H422 whole entry, looked up): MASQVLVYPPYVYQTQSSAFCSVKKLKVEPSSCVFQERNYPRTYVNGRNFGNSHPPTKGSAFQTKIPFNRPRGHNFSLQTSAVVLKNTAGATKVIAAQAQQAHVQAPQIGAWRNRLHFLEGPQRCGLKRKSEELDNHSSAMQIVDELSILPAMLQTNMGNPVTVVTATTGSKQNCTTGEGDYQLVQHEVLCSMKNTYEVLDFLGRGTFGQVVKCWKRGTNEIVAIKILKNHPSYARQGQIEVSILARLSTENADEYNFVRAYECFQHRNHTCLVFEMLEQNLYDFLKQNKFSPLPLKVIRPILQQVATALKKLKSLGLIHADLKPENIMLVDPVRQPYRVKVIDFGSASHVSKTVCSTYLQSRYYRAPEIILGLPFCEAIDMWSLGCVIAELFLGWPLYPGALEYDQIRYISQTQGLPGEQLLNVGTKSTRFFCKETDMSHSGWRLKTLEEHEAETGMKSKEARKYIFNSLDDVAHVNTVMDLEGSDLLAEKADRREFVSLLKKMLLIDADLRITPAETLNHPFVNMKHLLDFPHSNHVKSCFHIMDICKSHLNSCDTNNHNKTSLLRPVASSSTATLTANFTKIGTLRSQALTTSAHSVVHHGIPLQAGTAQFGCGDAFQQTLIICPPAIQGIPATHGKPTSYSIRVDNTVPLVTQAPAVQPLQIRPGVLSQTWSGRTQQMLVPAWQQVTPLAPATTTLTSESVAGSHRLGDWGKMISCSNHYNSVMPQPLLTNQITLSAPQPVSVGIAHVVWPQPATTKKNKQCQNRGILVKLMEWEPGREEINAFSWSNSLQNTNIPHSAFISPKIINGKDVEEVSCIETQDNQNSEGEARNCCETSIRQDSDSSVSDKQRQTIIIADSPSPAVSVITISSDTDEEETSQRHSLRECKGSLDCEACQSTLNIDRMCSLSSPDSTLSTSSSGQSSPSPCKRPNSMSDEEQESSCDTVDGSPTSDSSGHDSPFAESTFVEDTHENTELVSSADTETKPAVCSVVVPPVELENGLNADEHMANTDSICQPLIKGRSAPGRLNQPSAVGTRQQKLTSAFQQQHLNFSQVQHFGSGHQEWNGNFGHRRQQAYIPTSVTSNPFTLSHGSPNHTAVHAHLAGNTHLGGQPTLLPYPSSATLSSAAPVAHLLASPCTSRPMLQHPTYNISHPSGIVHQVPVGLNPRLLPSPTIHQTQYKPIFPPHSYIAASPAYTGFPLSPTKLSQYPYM
MAP kinase-activated protein kinase 3 (Homo sapiens), sequence (Q16644 whole entry, looked up): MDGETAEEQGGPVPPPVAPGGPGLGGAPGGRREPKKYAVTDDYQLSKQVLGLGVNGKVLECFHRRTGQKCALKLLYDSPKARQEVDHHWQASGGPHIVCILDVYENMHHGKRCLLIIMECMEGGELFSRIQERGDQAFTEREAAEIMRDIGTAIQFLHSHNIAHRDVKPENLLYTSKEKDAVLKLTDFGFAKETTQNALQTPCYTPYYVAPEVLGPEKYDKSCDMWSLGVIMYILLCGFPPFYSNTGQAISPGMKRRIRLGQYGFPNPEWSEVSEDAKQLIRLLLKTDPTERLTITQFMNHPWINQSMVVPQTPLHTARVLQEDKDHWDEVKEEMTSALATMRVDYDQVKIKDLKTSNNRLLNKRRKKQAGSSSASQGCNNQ

For `COCCNC(=O)c1ccc2c(c1)nc(-c1cnc(-c3ccc(Cl)cc3)[nH]1)n2CCOC`, the inhibition in assay [1] was 2.53%; in [2] it was 4.14%; in assay [3], 8.78%; in assay [4], 11.4%; in assay [5] it was 3.91%; in [6], -0.18%. Further, the inhibition in [7] worked out at 7.67%; in [8], 17.1%; in [9] it was 0.16%; in assay [10] it was 2.98%; in [11] it was 4.86%; in [12], 4.75%. Also, the inhibition was determined as 84.4% in [14] and 5.8% in assay [15]. Moreover, the K in assay [13] is 0.12 s⁻¹.
In the case of `CC(C)(C)c1cc(NC(=O)Nc2ccc(Oc3ccncc3)cc2)no1`, the inhibition was -7.24% in assay [1]; 79.4% in assay [2]; 72.3% in [3]; 12.3% in assay [4]; 45.5% in [5]; 55.2% in assay [6]. Also, the inhibition in assay [7] is 16.5%; in assay [8] it was 81.5%; in [9] it was -4.91%; in assay [10] it was -1.05%; in [11], 20%; in assay [12], 69.2%. Also, the values for the inhibition in assay [14] and in [15] were 95.7% and 43.8%, respectively. Moreover, the K in assay [13] was determined as 0.000135 s⁻¹.
Regarding `CS(=O)(=O)c1cccc(Nc2nccc(-c3sc(N4CCOCC4)nc3-c3cccc(NS(=O)(=O)c4c(F)cccc4F)c3)n2)c1`, the inhibition in assay [1] was 95.3%; in assay [2], 64.4%; in assay [3] it was 51.2%; in assay [4] it was 12.1%; in assay [5], 89.4%; in assay [6], -0.07%. In addition, the inhibition was 23.7% in assay [7]; 63.4% in assay [8]; -3.69% in [9]; 2.62% in assay [10]; 97% in [11]; 97% in assay [12]. The inhibition in [14] was 100%; in assay [15], 83.8%. Besides, the K in [13] was 0.000147 s⁻¹.
